In patent US7767676B2, “Dihydro-1,3,5-triazine amine derivatives and their therapeutic uses” (Merck Sante, priority 2000, dated 2010):
Where a name gives a salt, the structure may show the parent alone. Read-outs that look alike come from different tables or passages of the source.

Tests used:
[1] = test system: non-insulin-dependent diabetes induced in rats by Streptozotocin; experiment: Antidiabetic activity in the Nostz rat (non-insulin-dependent diabetes induced by neonatal streptozotocin), glycaemia after oral treatment; type: in vivo; conditions: diabetic rats, blood 2 h after last administration; for change in vivo at 20 mg/kg: 20 mg/kg/D oral; for change in vivo at 200 mg/kg: 200 mg/kg/D oral
Description: Study of the Antidiabetic Activity in the Nostz Rat
The antidiabetic activity of the compounds of formula (I) administered orally was determined on an experimental model of non-insulin-dependent diabetes induced in rats by Streptozotocin.
The non-insulin-dependent diabetes model is obtained in rats by neonatal injection (on the day of birth) of streptozotocin.
The diabetic rats used were 8 weeks old. The animals were kept, from the day of their birth to the day of the experiment, in an animal house at a controlled temperature of 21 to 22° C. and subjected to a fixed cycle of light (from 7 am to 7 pm) and darkness (from 7 pm to 7 am). Their diet consisted of a maintenance diet, water and food were provided “ab libitum”, with the exception of the 2 hours of fasting preceding the tests when the food is withdrawn (postabsorptive state).
The rats were treated by the oral route for one (D1) or four (D4) days with the product to be tested. Two hours after the last administration of the product and 30 minutes after anaesthetizing the animals with sodium pentobarbital (Nembutal a), 300 μl of blood sample are collected from the end of the tail.
By way of example, results obtained are assembled in Table III.

[2] = test system: Maillard reaction of bovine albumin with methylglyoxal; experiment: Antiglycation activity: fructosamine assay after incubation of albumin with methylglyoxal; type: biochemical; conditions: compound 10 mM, bovine albumin 6.6 mg/ml, 1 mM methylglyoxal, pH 7.4, 37° C., 6 days; relative to incubation without compound
Description: Study of the Antiglycation Activity
The compounds (I) are also capable of inhibiting the so-called Maillard reactions by “capturing effect” on the α-dicarbonyl-containing derivatives such as glyoxal—this is the antiglycation effect. This Maillard reaction inhibiting effect of the compounds according to the invention was studied in vitro by assaying ketamines (“fructosamines”) produced during the incubation of albumin with methylglyoxal in the presence or otherwise of a compound of formula (I) according to the invention.
A solution of bovine albumin at 6.6 mg/ml in 0.2 M phosphate buffer, pH 7.4, is incubated with 1 mM methylglyoxal in the presence or otherwise of a compound according to the invention at a concentration of 10 mM. The incubation is carried out under sterile conditions at 37° C. for 6 days. At the end of the incubation period, the quantity of ketamines is measure with a commercially available fructosamine assay kit (“FRA” kit, product reference: 0757055, Roche S. A. products) according to the manufacturer's instructions.
By way of example, results obtained under these experimental conditions are assembled in Table IV: level of fructosamine after incubation of the albumin with the methylglyoxal in the presence of compounds (I) according to the invention in relation to the level of fructosamine when albumin is incubated with methylglyoxal in the absence of the compounds (I) according to the invention.

[3] = 24 h, 1 day of treatment, read-out: percentage variation of glycaemia at D1 relative to D0
[4] = 96 h, 4 days of treatment, read-out: percentage variation of glycaemia at D4 relative to D0

Compound | change in vivo at 20 mg/kg [1, 3] [%] | change in vivo at 200 mg/kg [1, 3] [%] | change in vivo at 20 mg/kg [1, 4] [%] | change in vivo at 200 mg/kg [1, 4] [%] | Reduction in the level of fructosamines (%) [2] [%] | melting point [°C]
CN(C)C1=NC(c2ccco2)N=C(N)N1 (centres unmarked) [Compound 40] | -8 | -18 | -12 | -18 | 66 | –
CN(C)C1=NC(Cc2ccccc2)N=C(N)N1 (centres unmarked) [Compound 37] | -7 | -10 | -8 | -15 | 65 | –
CN(C)C1=NC(C(F)(F)F)N=C(N)N1 (centres unmarked) [Compound 36] | – | – | – | – | 66 | –
CC(C)CC1N=C(N)NC(N(C)C)=N1 (centres unmarked) [Compound 43] | -4 | -12 | -16 | -17 | 68 | –
CN(C)C1=NCN=C(N)N1 [Compound 33] | -7 | -9 | -6 | -14 | 79 | –
COc1ccc(C2N=C(N)NC(N(C)C)=N2)cc1 (centres unmarked) [Compound 11] | – | – | – | – | 89 | –
CN(C)C1=NC2(CCCC2)N=C(N)N1 (as salt: HCl) [Compound 31] | – | – | – | – | – | 207 to 209
CN(C)C1=NC(C2CCCCC2)N=C(N)N1 (centres unmarked) [Compound 34] | -5 | -6 | -15 | -21 | 64 | –
CC1N=C(N(C)C)NC(N2CCCC2)=N1 (centres unmarked) (as salt: salt) [Compound 21] | – | – | – | – | – | > 140
CC(CCC(=O)O)[C@H]1CCC2C3C(C[C@H](O)[C@@]21C)[C@@]1(C)CCC2(CC1C[C@H]3O)N=C(N)NC(N(C)C)=N2 (some centres unmarked) (as salt: HCl) [Compound 25] | – | – | – | – | – | > 260
CCC1N=C(N)NC(N(C)C)=N1 (centres unmarked) (as salt: HCl) [Compound 1, 2-amino-3,6-dihydro-4-dimethylamino-6-ethyl-1,3,5-triazine hydrochloride] | – | – | – | – | – | 218 to 220
CN(C)C1=NC(C)(CCCO)N=C(N)N1 (centres unmarked) [Compound 6] | – | – | – | – | – | 138 to 140
C=CCNC1=NC(C)(C)N=C(N(C)C)N1 (as salt: HCl) [Compound 8] | – | – | – | – | – | 124 to 126
CN(C)C1=NC(c2ccccc2)N=C(N)N1 (centres unmarked) [Compound 10] | – | – | – | – | 80 | –
CN(C)C1=NC(c2ccc(O)cc2)N=C(N)N1 (centres unmarked) [Compound 13] | – | – | – | – | 95 | > 260
CC1N=C(N)NC(N(C)C)=N1 (centres unmarked) [Compound 18] | -6 | -29 | -4 | -28 | 69 | –
CN(C)C1=NC(c2ccco2)N=C(N)N1 (centres unmarked) (as salt: HCl) [Compound 40] | – | – | – | – | – | 225 to 227
CC(C)CCCC(C)[C@H]1CCC2C3CCC4CC5(CC[C@]4(C)C3CC[C@@]21C)N=C(N)NC(N(C)C)=N5 (some centres unmarked) (as salt: HCl) [Compound 19] | – | – | – | – | – | > 260
CN(C)C1=NC(c2ccc(O)cc2)N=C(N)N1 (centres unmarked) [Compound 12] | – | – | – | – | 90 | –
CN(C)C1=NC(C2CC=CCC2)N=C(N)N1 (centres unmarked) [Compound 45] | – | – | – | – | 67 | –
CCC1N=C(N)NC(N(C)C)=N1 (centres unmarked) [Compound 1, 2-amino-3,6-dihydro-4-dimethylamino-6-ethyl-1,3,5-triazine hydrochloride] | -7 | -13 | -2 | -15 | 62 | –
